Test results as given in patent US20260297080A1, “BICYCLIC COMPOUNDS AS CDK INHIBITORS” (BeOne Medicines I GmbH, priority 2022, published 2026).

Assays:
CDK1/Cyclin B1 = CDK1/Cyclin B1 (Homo sapiens, UniProt P06493); test: CDK1/Cyclin B1 Biochemical Assay (TR-FRET), 0.015 mM ATP; conditions: 0.15 μM Rb (Ser780)-biotin substrate, pH7.0, 60 min preincubation, 120 min reaction, room temperature
How it was run: (§1)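 Inhibitor concentrations up to 10 μM were preincubated with each cyclin–kinase complex for 60 minutes before ATP and biotinylated Rb (Ser780) substrate (0.15 μM) were added. After 120 minutes at room temperature, phosphorylation was quantified by HTRF and IC50 values were fitted with a four-parameter logistic equation.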

CDK2/Cyclin E1 = CDK2/Cyclin E1 (Homo sapiens, UniProt P24941); test: CDK2/Cyclin E1 Biochemical Assay (TR-FRET), 0.060 mM ATP; conditions: 0.15 μM Rb (Ser780)-biotin substrate, pH7.0, 60 min preincubation, 120 min reaction, room temperature
How it was run: as §1

Sequence of CDK1/Cyclin B1 (P06493 whole entry): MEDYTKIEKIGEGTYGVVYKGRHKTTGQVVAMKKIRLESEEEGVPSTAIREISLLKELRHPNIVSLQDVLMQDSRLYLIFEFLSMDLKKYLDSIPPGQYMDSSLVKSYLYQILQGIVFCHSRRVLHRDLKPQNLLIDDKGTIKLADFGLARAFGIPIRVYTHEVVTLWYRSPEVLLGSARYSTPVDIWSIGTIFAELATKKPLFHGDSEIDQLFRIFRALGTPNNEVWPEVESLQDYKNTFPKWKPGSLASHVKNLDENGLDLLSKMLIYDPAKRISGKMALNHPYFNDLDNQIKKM
Sequence of CDK1/Cyclin B1 (P14635 whole entry partner): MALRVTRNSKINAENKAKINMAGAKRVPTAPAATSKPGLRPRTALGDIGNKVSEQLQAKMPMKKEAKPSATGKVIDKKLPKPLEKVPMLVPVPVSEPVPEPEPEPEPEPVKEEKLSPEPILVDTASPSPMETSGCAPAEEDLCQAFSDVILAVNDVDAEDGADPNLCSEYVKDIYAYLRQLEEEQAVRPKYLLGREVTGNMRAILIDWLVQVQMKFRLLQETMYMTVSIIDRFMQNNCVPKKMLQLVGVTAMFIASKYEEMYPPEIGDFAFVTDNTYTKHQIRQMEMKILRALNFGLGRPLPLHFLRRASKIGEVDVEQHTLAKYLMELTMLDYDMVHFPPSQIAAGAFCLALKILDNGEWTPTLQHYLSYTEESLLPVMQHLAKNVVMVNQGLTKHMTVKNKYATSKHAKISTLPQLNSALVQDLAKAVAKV

Row | SMILES | IC50 (CDK1/Cyclin B1) [nM] | IC50 (CDK2/Cyclin E1) [nM]
1 | CC(C)NC(=O)O[C@H]1CC[C@@H](c2cc(Nc3ccc4c(c3F)CN(C3CC3)S4(=O)=O)n[nH]2)C1 (single isomer, unassigned) [Example 116b, cis-3-(3-((2-cyclopropyl-4-fluoro-1,1-dioxido-2,3-dihydrobenzo[d]isothiazol-5-yl)amino)-1H-pyrazol-5-yl)cyclopentyl isopropylcarbamate] | 189 | 5.4
2 | CC[C@H](C)NC(=O)O[C@H]1CC[C@@H](c2cc(Nc3ccc4c(c3F)CN(C3CC3)S4(=O)=O)n[nH]2)C1 (single isomer, unassigned) [Example 117b] | 91 | 1.8
3 | CCCNC(=O)O[C@H]1CC[C@@H](c2cc(Nc3ccc4c(c3F)CN(C3CC3)S4(=O)=O)n[nH]2)C1 (single isomer, unassigned) [Example 118a, cis-3-(3-((2-cyclopropyl-4-fluoro-1,1-dioxido-2,3-dihydrobenzo[d]isothiazol-5-yl)amino)-1H-pyrazol-5-yl)cyclopentyl propylcarbamate] | 395 | 14
4 | CCCNC(=O)O[C@H]1CC[C@@H](c2cc(Nc3ccc4c(c3F)CN(C3CC3)S4(=O)=O)n[nH]2)C1 (single isomer, unassigned) [Example 118b, cis-3-(3-((2-cyclopropyl-4-fluoro-1,1-dioxido-2,3-dihydrobenzo[d]isothiazol-5-yl)amino)-1H-pyrazol-5-yl)cyclopentyl propylcarbamate] | 168 | 8
5 | CC1(NC(=O)O[C@H]2CC[C@@H](c3cc(Nc4ccc5c(c4F)CN(C4CC4)S5(=O)=O)n[nH]3)C2)CC1 (single isomer, unassigned) [Example 119a, cis-3-(3-((2-cyclopropyl-4-fluoro-1,1-dioxido-2,3-dihydrobenzo[d]isothiazol-5-yl)amino)-1H-pyrazol-5-yl)cyclopentyl(1-methylcyclopropyl)carbamate] | 216 | 2.5
6 | CC1(NC(=O)O[C@H]2CC[C@@H](c3cc(Nc4ccc5c(c4F)CN(C4CC4)S5(=O)=O)n[nH]3)C2)CC1 (single isomer, unassigned) [Example 119b, cis-3-(3-((2-cyclopropyl-4-fluoro-1,1-dioxido-2,3-dihydrobenzo[d]isothiazol-5-yl)amino)-1H-pyrazol-5-yl)cyclopentyl(1-methylcyclopropyl)carbamate] | 114 | 1.9
7 | CC(C)NC(=O)O[C@H]1CC[C@@H](c2cc(Nc3ccc4c(c3F)CN(C)S4(=O)=O)n[nH]2)C1 (single isomer, unassigned) [Example 121b, cis-3-(3-((4-fluoro-2-methyl-1,1-dioxido-2,3-dihydrobenzo[d]isothiazol-5-yl)amino)-1H-pyrazol-5-yl)cyclopentyl isopropylcarbamate] | 130 | 3.3
8 | CCCNC(=O)O[C@H]1CC[C@@H](c2cc(Nc3ccc4c(c3F)CN(C)S4(=O)=O)n[nH]2)C1 (single isomer, unassigned) [Example 122b, cis-3-(3-((4-fluoro-2-methyl-1,1-dioxido-2,3-dihydrobenzo[d]isothiazol-5-yl)amino)-1H-pyrazol-5-yl)cyclopentyl propylcarbamate] | 124 | 8.8
9 | CC[C@H](C)NC(=O)O[C@H]1CC[C@@H](c2cc(Nc3ccc4c(c3F)CN(C)S4(=O)=O)n[nH]2)C1 (single isomer, unassigned) [Example 123a] | 613 | 5.2
10 | CC[C@H](C)NC(=O)O[C@H]1CC[C@@H](c2cc(Nc3ccc4c(c3F)CN(C)S4(=O)=O)n[nH]2)C1 (single isomer, unassigned) [Example 123b] | 219 | 2.6
11 | CC(C)NC(=O)O[C@H]1CC[C@@H](c2cc(Nc3ccc4c(c3F)CN(CCO)S4(=O)=O)n[nH]2)C1 (single isomer, unassigned) [Example 125a, cis-3-(3-((4-fluoro-2-(2-hydroxyethyl)-1,1-dioxido-2,3-dihydrobenzo[d]isothiazol-5-yl)amino)-1H-pyrazol-5-yl)cyclopentyl isopropylcarbamate] | 1220 | 12
12 | CC1(NC(=O)O[C@H]2CC[C@@H](c3cc(Nc4ccc5c(c4F)CN(CCO)S5(=O)=O)n[nH]3)C2)CC1 (single isomer, unassigned) [Example 128a, cis-3-(3-((4-fluoro-2-(2-hydroxyethyl)-1,1-dioxido-2,3-dihydrobenzo[d]isothiazol-5-yl)amino)-1H-pyrazol-5-yl)cyclopentyl(1-methylcyclopropyl)carbamate] | 192 | 2.7
13 | CC1(NC(=O)O[C@H]2CC[C@@H](c3cc(Nc4ccc5c(c4F)CN(CCO)S5(=O)=O)n[nH]3)C2)CC1 (single isomer, unassigned) [Example 128b, cis-3-(3-((4-fluoro-2-(2-hydroxyethyl)-1,1-dioxido-2,3-dihydrobenzo[d]isothiazol-5-yl)amino)-1H-pyrazol-5-yl)cyclopentyl(1-methylcyclopropyl)carbamate] | 96 | 2.5
14 | [2H]C([2H])([2H])N1Cc2c(ccc(Nc3cc([C@@H]4CC[C@H](OC(=O)NC(C)C)C4)[nH]n3)c2F)S1(=O)=O (single isomer, unassigned) [Example 129a, cis-3-(3-((4-fluoro-2-(methyl-d3)-1,1-dioxido-2,3-dihydrobenzo[d]isothiazol-5-yl)amino)-1H-pyrazol-5-yl)cyclopentyl isopropylcarbamate] | 652 | 4.7
15 | [2H]C([2H])([2H])N1Cc2c(ccc(Nc3cc([C@@H]4CC[C@H](OC(=O)NC5(C)CC5)C4)[nH]n3)c2F)S1(=O)=O (single isomer, unassigned) [Example 132b, cis-3-(3-((4-fluoro-2-(methyl-d3)-1,1-dioxido-2,3-dihydrobenzo[d]isothiazol-5-yl)amino)-1H-pyrazol-5-yl)cyclopentyl(1-methylcyclopropyl)carbamate] | 65 | 1.9
16 | CC(C)NC(=O)O[C@H]1CC[C@@H](c2cc(Nc3ccc4c(c3F)CN(C3COC3)S4(=O)=O)n[nH]2)C1 (single isomer, unassigned) [Example 133a, cis-3-(3-((4-fluoro-2-(oxetan-3-yl)-1,1-dioxido-2,3-dihydrobenzo[d]isothiazol-5-yl)amino)-1H-pyrazol-5-yl)cyclopentyl isopropylcarbamate] | 1080 | 24
17 | CC(C)NC(=O)O[C@H]1CC[C@@H](c2cc(Nc3ccc4c(c3F)CN(C3COC3)S4(=O)=O)n[nH]2)C1 (single isomer, unassigned) [Example 133b, cis-3-(3-((4-fluoro-2-(oxetan-3-yl)-1,1-dioxido-2,3-dihydrobenzo[d]isothiazol-5-yl)amino)-1H-pyrazol-5-yl)cyclopentyl isopropylcarbamate] | 456 | 8.6
18 | CC[C@H](C)NC(=O)O[C@H]1CC[C@@H](c2cc(Nc3ccc4c(c3F)CN(C3COC3)S4(=O)=O)n[nH]2)C1 (single isomer, unassigned) [Example 134b] | 120 | 1.3

More lines, in order of falling IC50 (CDK1/Cyclin B1), values ahead:

Row | IC50 (CDK1/Cyclin B1) [nM] | IC50 (CDK2/Cyclin E1) [nM] | SMILES
19 | 488 | 3.8 | CC[C@H](C)NC(=O)O[C@H]1CC[C@@H](c2cc(Nc3ccc4c(c3F)CN(C3COC3)S4(=O)=O)n[nH]2)C1 (single isomer, unassigned) [Example 134a]
20 | 455 | 12 | CCCNC(=O)O[C@H]1CC[C@@H](c2cc(Nc3ccc4c(c3F)CN(C)S4(=O)=O)n[nH]2)C1 (single isomer, unassigned) [Example 122a, cis-3-(3-((4-fluoro-2-methyl-1,1-dioxido-2,3-dihydrobenzo[d]isothiazol-5-yl)amino)-1H-pyrazol-5-yl)cyclopentyl propylcarbamate]
21 | 425 | 5.8 | CC(C)NC(=O)O[C@H]1CC[C@@H](c2cc(Nc3ccc4c(c3F)CN(C)S4(=O)=O)n[nH]2)C1 (single isomer, unassigned) [Example 121a, cis-3-(3-((4-fluoro-2-methyl-1,1-dioxido-2,3-dihydrobenzo[d]isothiazol-5-yl)amino)-1H-pyrazol-5-yl)cyclopentyl isopropylcarbamate]
22 | 341 | 4.9 | CC(C)NC(=O)O[C@H]1CC[C@@H](c2cc(Nc3ccc4c(c3F)CN(CCO)S4(=O)=O)n[nH]2)C1 (single isomer, unassigned) [Example 125b, cis-3-(3-((4-fluoro-2-(2-hydroxyethyl)-1,1-dioxido-2,3-dihydrobenzo[d]isothiazol-5-yl)amino)-1H-pyrazol-5-yl)cyclopentyl isopropylcarbamate]
23 | 326 | 2.5 | CC[C@H](C)NC(=O)O[C@H]1CC[C@@H](c2cc(Nc3ccc4c(c3F)CN(C3CC3)S4(=O)=O)n[nH]2)C1 (single isomer, unassigned) [Example 117a]
24 | 237 | 2.6 | CCCNC(=O)O[C@@H]1CC[C@H](c2cc(Nc3ccc4c(c3F)CNS4(=O)=O)n[nH]2)C1 (single isomer, unassigned) [Example 138a]
25 | 206 | 2.2 | [2H]C([2H])([2H])N1Cc2c(ccc(Nc3cc([C@@H]4CC[C@H](OC(=O)NC5(C)CC5)C4)[nH]n3)c2F)S1(=O)=O (single isomer, unassigned) [Example 132a, cis-3-(3-((4-fluoro-2-(methyl-d3)-1,1-dioxido-2,3-dihydrobenzo[d]isothiazol-5-yl)amino)-1H-pyrazol-5-yl)cyclopentyl(1-methylcyclopropyl)carbamate]
26 | 185 | 2.6 | [2H]C([2H])([2H])N1Cc2c(ccc(Nc3cc([C@@H]4CC[C@H](OC(=O)NC(C)C)C4)[nH]n3)c2F)S1(=O)=O (single isomer, unassigned) [Example 129b, cis-3-(3-((4-fluoro-2-(methyl-d3)-1,1-dioxido-2,3-dihydrobenzo[d]isothiazol-5-yl)amino)-1H-pyrazol-5-yl)cyclopentyl isopropylcarbamate]
